Assay results as given in patent publication US20110065675A1, “AZO DYE RELATED SMALL MOLECULE MODULATORS OF PROTEIN-PROTEIN INTERACTIONS” (University of Miami, priority 2008, published 2011).

What was measured:
human CD19+ B cells = assay: Inhibition of CD154-induced human B-cell proliferation (BrdU ELISA); type: cell-based
Text: CD40 stimulation is an important proliferation signal for human B cell proliferation (Fecteau et al., “CD40 stimulation of human peripheral B lymphocytes: distinct response from naive and memory cells. J. Immunol., vol. 171, pp. 4621-4629, 2003; Wiesner et al., “Conditional immortalization of human B cells by CD40 ligation,” PLoS ONE, vol. 3, pp. e1464, 2008), and soluble CD154 (CD40 ligand) can dose-dependently induce the proliferation of human CD19^+ B cells as measured by standard proliferation .assays. […]
The detailed procedure is as follows: Frozen MPB CD19^+ B lymphocytes (approximately 10^6 cells per vial) were obtained from StemCells Technologies (Vancouver, Canada), thawed in a 37° C. water bath until no crystal piece was left, and the cell suspension was transferred to a 50 mL conical tube. […] This was repeated, the cells were counted, and the concentration of viable cells was adjusted to approximately 1×10^6 cells/mL. […] A colorimetric cell proliferation ELISA BrdU from Roche Applied Science (Indianapolis, Ind.) was used as immunoassay for quantification of cell proliferation based on the measurement of BrdU incorporation during DNA replication. […]

[1] = molecular target: P2 (ATP/UTP purine receptor); details: read-out: IC50, P2 antagonist; cited from earlier work

For `Cc1ccc(C(=O)Nc2ccc(S(=O)(=O)O)c3cc(S(=O)(=O)O)cc(S(=O)(=O)O)c23)cc1NC(=O)c1cccc(NC(=O)Nc2cccc(C(=O)Nc3cc(C(=O)Nc4ccc(S(=O)(=O)O)c5cc(S(=O)(=O)O)cc(S(=O)(=O)O)c45)ccc3C)c2)c1` [Suramin, reference compound], the IC50 (human CD19+ B cells; Homo sapiens, B-cell, CD19+ B cells, 48 h + 48 h BrdU) is listed as 50 to 100 µM and the IC50 [1] is listed as 5 to 10 µM.
With `O=C([O-])C1=NN(c2ccc(S(=O)(=O)[O-])cc2)C(=O)C1N=Nc1ccc(S(=O)(=O)[O-])cc1.[Na+].[Na+].[Na+]` (stereo not drawn) [Tartrazine (FD&C yellow 5), Tartrazine, reference compound] the “Inhibition of CD154-induced B-cell proliferation” value (human CD19+ B cells) was “no proliferation inhibiting activity”.
